These results are taken from patent publication US10827969B2, “Breath test device and method” (EXALENZ BIOSCIENCE LTD., priority 2005, dated 2020).

A short description of data set [1]: Conditions for dissolving methacetin: dissolving time. Type of data set: physicochemical. Particulars: room temperature (approximately 25° C.).
Method: It was evaluated whether the thermal cycle for dissolving the API (active pharmaceutical ingredient, such as methacetin) can be eliminated from or at least lowered in the process. Cold vortexing, as well as the assistance of excipients acceptable by the international pharmaceutical regulations and capable of assisting in improving the dissolution of the API, were utilized.
Experimentation trials were performed, in order to eliminate the heating stage while dissolving the API (methacetin) in purified water.
Therefore, alternative directions for improving the API dissolution were tried. Solvents capable of dissolving the API and approvable for utilization in pharmaceutical preparations were utilized for this task.
30% by volume of the purified water of the preparation was replaced by the alternative solvent. The dissolving time of each preparation was recorded.
Therefore, a gradient of temperature was utilized to completely dissolve the methacetin in the preparation. An in-process control testing was applied at this stage. A UV specific absorbance analytical method, without further manipulation of the sample, was utilized for confirming that the solid has been completely dissolved in the preparation.
A short description of data set [2]: Two weeks stability of methacetin formulations (HPLC assay, appearance). The class given is physicochemical. As to conditions: 37-38 mg/100 mL methanol, room temperature, at least one week. As for the experimental part:
In the first three items, formulations containing 75 mg methacetin/200 mL solvent were prepared: 2-1. Formulation-1: 76.04 mg methacetin; 62.94 mg SLS; water to final volume of 200 mL. 2-2. Formulation-2: 75.87 mg methacetin; 4 mL PPG-400; water to final volume of 200 mL. 2-3. Formulation-3: 76.66 mg methacetin; 4 mL tween-80; water to final volume of 200 mL. The first three formulated solutions were stored at room temperature protected from light. The fourth solution was stored in an incubator for 3 months at 40° C. On each testing interval, the formulated samples were analyzed according to the following method: [table] The samples were diluted to a concentration of about 37 ppm (37 mg in 1000 ml) and analyzed against a standard solution at the same concentration. The standard was provided by the sponsor (Adrich 428264 batch: UI 2335). Purity of 100% was used in calculations. The methacetin sample that was used for the formulations was also used as a standard for the HPLC determination. […] The stock solution was diluted ×10 in mobile phase solution before the HPLC analysis. The assay was conducted according to Analyst SOP No. 05-001-03, and the HPLC method that was provided by the sponsor.

For data set [3] the following is noted: as known in the art; cited from earlier work.
Data set [4] can be described thus: Decomposition of methacetin on heating in solution. The class given is physicochemical. As to conditions: heating at 80° C. for three hours. How it is done: There is thus provided, according to some embodiments, a method of controlled dissolution of methacetin. Methacetin seems to be stable after short term warming to <80° C. in solution. […] Therefore, according to an embodiment of the invention, a solution of methacetin may be prepared by dissolution in warm water.

On the set-up of data set [5]: species or system subject. As to conditions: in vivo. The text has this: One of the most common methods for determining the rate of metabolism of methacetin is to analyze the rate of metabolism of the methoxy group (CH3O) of methacetin to carbon dioxide, which is excreted in exhaled breath. To distinguish the carbon dioxide derived from methacetin from all other sources of carbon dioxide, the methoxy group is labeled with ^13C, a stable isotope of carbon. Thus, all the CO2 derived from methacetin will contain ^13C (^13CO2) in contrast to all other sources of CO2, which will contain approximately 99%^12C, and 1% ^13C, the naturally abundant isotope. Thus, the rate of excretion of ^13CO2 (normalized to ^12CO2) above background following the administration of methacetin-methoxy-^13C indicates its rate of metabolism, which relates to the hepatic cell “health” and to the functional mass of the liver.
The curve depicts the rate of metabolism of ^13C-Methacetin in % dose/hour as measured in breath. The peak of the curve (marked by the arrow) appears after 0.4 h (hours). The PDR peak height is approximately at 23.5% dose/hour.
The following are two examples that illustrate this phenomenon. […]

As for `COc1ccc(NC(C)=O)cc1` [methacetin, N-(4-Methoxyphenyl)acetamide], the dissolution in water entry in data set [1] was “does not dissolve well”. The “stability of methacetin stock solution” value in data set [2] was “stable”. Besides, in data set [3], the hepatic extraction ratio result is “more than 0.8”. In data set [4], this compound displayed a methacetin decomposed of 0.018%.

On to `CC(=O)Nc1ccc(O[13CH3])cc1` [^13C-Methacetin, methacetin-methoxy-^13C], for which, in data set [5], the PDR peak height is recorded as ~23.5 % dose/hour and the “time of appearance of the PDR peak” value is 0.4 h.
